Measured values: patent US20050288371A1, “Treatment of neuropathic pain, fibromyalgia or rheumatoid arthritis” (H. Lundbeck A/S, priority 2004, published 2005)

Legend:
[1] = background statement on known drugs; cited from earlier work
[2] = formalin pain model; format: in vivo; details: s.c. test drug 30 min or 2 h before the test
From the text: The formalin pain model is a well-established animal model of persistent somatic pain (Dubuisson, D. and Dennis, S. G. Pain 4, 1977, 161-174). It has been described as a model of clinical inflammatory pain (Tjølsen, A. and Hole, K, In: Dickenson, A. H. and Besson, J.-M. R., Editors, 1997, The Pharmacology of Pain, Springer-Verlag, Berlin, 1-20). Formalin injected subcutaneously in a hind paw produces initially a local stimulation of the nociceptors; this is referred to as phase 1. This is followed by inflammatory processes and nerve sensitization (phase 2). The latter phase models the neuropathic pain condition. A number of drugs are active in the model, e.g. morphine and in particular antiepileptic drugs (e.g. gabapentin, lamotrigine, carbamazepine) that have shown beneficial effects in clinical neuropathic states. However, these treatments are accompanied by troublesome side effects. The non-steroid antiinflammatory drugs (NSAIDs) that are used for treatment of inflammatory processes in tissue and have relatively weak effects on neuropathic pain conditions have weak activity in the formalin model.
Fifty microliters of 2.5% formalin were administered subcutaneously (s.c.) into the plantar region of the right hind-paw. […] The total time the animal spent licking, biting or shaking the injected paw was recorded. […]

Structure (SMILES) | activity in the formalin model [1] | inhibition of the pain response in phase 1 ([2]; phase 1 (0-5 min after formalin injection)) | inhibition of the pain response in phase 2 ([2]; phase 2 (20-30 min after formalin injection))
NC(=O)N1c2ccccc2C=Cc2ccccc21 [carbamazepine] | active |  | 
NCC1(CC(=O)O)CCCCC1 [gabapentin] | active |  | 
Oc1noc2c1CCNC2 [gaboxadol] |  | potent and dose dependent inhibition of the pain response in phase 1 | potently inhibited the pain response in phase 2, in a dose dependent manner
Nc1nnc(-c2cccc(Cl)c2Cl)c(N)n1 [lamotrigine] | active |  | 
CN1CC[C@]23c4c5ccc(O)c4O[C@H]2[C@@H](O)C=C[C@H]3[C@H]1C5 [morphine] | active |  | 
